According to BindingDB's records for doi:10.1111/cbdd.12609 (Tehran University of Medical Sciences, 2015):

Legend:
[1] = biological target: Carboxylic ester hydrolase (Equus caballus, UniProt Q9N1N9); experiment: AChE and BChE Inhibition Assay; conditions: pH 8; 25 °C
Description: (§1) To evaluate in vitro AChE activity, modified Ellman's method was performed using a 96-well plate reader (BioTek ELx808, Highland Park, IL, USA). Each well contained 50 µL potassium phosphate buffer (KH2PO4/K2HPO4, 0.1 M, pH 8), 25 µL sample dissolved in 50% methanol and 50% DMSO, and 25 µL enzyme (final concentration 0.22 U/mL in buffer). They were preincubated for 20 min at room temperature, and then, 125 µL DTNB (3 mM in buffer) was added. […] The IC50 values were determined graphically from inhibition curves (log inhibitor concentration versus percent of inhibition). A control experiment was performed under the same conditions without inhibitor and the blank contained buffer, DMSO, DTNB, and substrate. The described method was also used for BChE inhibition assa

Acetylcholinesterase = Acetylcholinesterase (Electrophorus electricus, UniProt O42275); experiment: AChE and BChE Inhibition Assay; conditions: pH 8; 25 °C
Sequence of Acetylcholinesterase (O42275 whole entry): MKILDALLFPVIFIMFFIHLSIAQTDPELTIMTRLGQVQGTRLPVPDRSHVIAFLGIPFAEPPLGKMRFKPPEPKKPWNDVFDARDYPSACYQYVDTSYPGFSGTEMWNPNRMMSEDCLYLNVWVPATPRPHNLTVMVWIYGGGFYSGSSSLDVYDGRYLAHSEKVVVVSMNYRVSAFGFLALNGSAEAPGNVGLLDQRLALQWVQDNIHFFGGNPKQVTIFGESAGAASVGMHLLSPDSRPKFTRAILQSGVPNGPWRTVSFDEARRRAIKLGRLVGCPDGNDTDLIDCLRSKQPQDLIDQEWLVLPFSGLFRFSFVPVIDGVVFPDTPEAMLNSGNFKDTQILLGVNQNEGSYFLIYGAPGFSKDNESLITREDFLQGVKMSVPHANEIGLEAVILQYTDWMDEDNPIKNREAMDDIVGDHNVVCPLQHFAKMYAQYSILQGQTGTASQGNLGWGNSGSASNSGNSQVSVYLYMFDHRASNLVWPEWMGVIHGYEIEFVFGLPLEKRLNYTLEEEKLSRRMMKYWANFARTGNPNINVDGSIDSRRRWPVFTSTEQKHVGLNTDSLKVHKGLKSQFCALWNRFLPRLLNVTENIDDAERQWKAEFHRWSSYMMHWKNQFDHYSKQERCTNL
Description: as §1

Sequence of Carboxylic ester hydrolase (Q9N1N9 whole entry): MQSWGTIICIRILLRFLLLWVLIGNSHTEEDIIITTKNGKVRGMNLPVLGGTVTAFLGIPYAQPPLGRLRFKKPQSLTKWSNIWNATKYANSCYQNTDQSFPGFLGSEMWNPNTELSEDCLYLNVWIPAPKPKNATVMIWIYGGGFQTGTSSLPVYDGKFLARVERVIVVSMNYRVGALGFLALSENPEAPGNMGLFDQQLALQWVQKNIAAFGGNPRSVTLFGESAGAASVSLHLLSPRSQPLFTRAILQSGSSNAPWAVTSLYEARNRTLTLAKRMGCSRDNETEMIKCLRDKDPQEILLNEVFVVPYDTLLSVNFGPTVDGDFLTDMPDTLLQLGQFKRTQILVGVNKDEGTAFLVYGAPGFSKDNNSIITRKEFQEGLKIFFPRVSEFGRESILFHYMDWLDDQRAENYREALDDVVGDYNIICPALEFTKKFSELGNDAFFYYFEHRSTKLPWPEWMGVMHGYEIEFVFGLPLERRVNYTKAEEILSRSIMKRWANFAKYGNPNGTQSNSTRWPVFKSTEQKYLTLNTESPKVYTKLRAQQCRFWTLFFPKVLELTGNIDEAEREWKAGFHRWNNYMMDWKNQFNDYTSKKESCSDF

Compound | IC50 [1] | IC50 (Acetylcholinesterase)
Cc1ccc2c(c1)c(=O)c1ccccc1n2Cc1cn(Cc2nc(-c3ccc(Cl)cc3)no2)nn1 [10-((1-((3-(4-Chlorophenyl)-1,2,4-oxadiazol-5-yl)methyl)-1H-1,2,3-triazol-4-yl)methyl)-2-methylacridin-9(10H)-one (10h)] | > 100 µM | > 100 µM
O=c1c2ccccc2n(Cc2cn(Cc3nc(-c4ccc(Cl)cc4)no3)nn2)c2ccc(Cl)cc12 [2-Chloro-10-((1-((3-(4-chlorophenyl)-1,2,4-oxadiazol-5-yl)methyl)-1H-1,2,3-triazol-4-yl)methyl)acridin-9(10H)-one (10n)] | > 100 µM | 44.9 µM
O=c1c2ccccc2n(Cc2cn(Cc3nc(-c4ccc(Br)cc4)no3)nn2)c2ccccc12 [10-((1-((3-(4-Bromophenyl)-1,2,4-oxadiazol-5-yl)methyl)-1H-1,2,3-triazol-4-yl)methyl)acridin-9(10H)-one (10d)] | > 100 µM | 67.4 µM
COc1ccc(-c2noc(Cn3cc(Cn4c5ccccc5c(=O)c5cccc(Cl)c54)nn3)n2)cc1 [4-Chloro-10-((1-((3-(4-methoxyphenyl)-1,2,4-oxadiazol-5-yl)methyl)-1H-1,2,3-triazol-4-yl)methyl)acridin-9(10H)-one (10g)] | > 100 µM | > 100 µM
COc1ccc2c(c1)c(=O)c1ccccc1n2Cc1cn(Cc2nc(-c3ccc(Cl)cc3)no2)nn1 [10-((1-((3-(4-Chlorophenyl)-1,2,4-oxadiazol-5-yl)methyl)-1H-1,2,3-triazol-4-yl)methyl)-2-methoxyacridin-9(10H)-one (10k)] | > 100 µM | 77.8 µM
COc1ccc(-c2noc(Cn3cc(Cn4c5ccccc5c(=O)c5cc(OC)ccc54)nn3)n2)cc1 [2-Methoxy-10-((1-((3-(4-methoxyphenyl)-1,2,4-oxadiazol-5-yl)methyl)-1H-1,2,3-triazol-4-yl)methyl)acridin-9(10H)-one (10j)] | > 100 µM | > 100 µM
COc1ccc(-c2noc(Cn3cc(Cn4c5ccccc5c(=O)c5ccccc54)nn3)n2)cc1 [10-((1-((3-(4-Methoxyphenyl)-1,2,4-oxadiazol-5-yl)methyl)-1H-1,2,3-triazol-4-yl)methyl)acridin-9(10H)-one (10b)] | > 100 µM | 11.5 µM
Cc1ccc(-c2noc(Cn3cc(Cn4c5ccccc5c(=O)c5cc(Cl)ccc54)nn3)n2)cc1 [2-Chloro-10-((1-((3-(p-tolyl)-1,2,4-oxadiazol-5-yl)methyl)-1H-1,2,3-triazol-4-yl)methyl)acridin-9(10H)-one (10l)] | > 100 µM | > 100 µM
COc1cccc2c(=O)c3ccccc3n(Cc3cn(Cc4nc(-c5ccc(C)cc5)no4)nn3)c12 [4-Methoxy-10-((1-((3-(p-tolyl)-1,2,4-oxadiazol-5-yl)methyl)-1H-1,2,3-triazol-4-yl)methyl)acridin-9(10H)-one (10e)] | > 100 µM | > 100 µM
COc1ccc(-c2noc(Cn3cc(Cn4c5ccccc5c(=O)c5cccc(OC)c54)nn3)n2)cc1 [4-Methoxy-10-((1-((3-(4-methoxyphenyl)-1,2,4-oxadiazol-5-yl)methyl)-1H-1,2,3-triazol-4-yl)methyl)acridin-9(10H)-one (10f)] | > 100 µM | > 100 µM
Cc1ccc(-c2noc(Cn3cc(Cn4c5ccccc5c(=O)c5ccccc54)nn3)n2)cc1 [10-((1-((3-(p-Tolyl)-1,2,4-oxadiazol-5-yl)methyl)-1H-1,2,3-triazol-4-yl)methyl)acridin-9(10H)-one (10a)] | > 100 µM | 49 µM
COc1ccc(-c2noc(Cn3cc(Cn4c5ccccc5c(=O)c5cc(Br)ccc54)nn3)n2)cc1 [2-Bromo-10-((1-((3-(4-methoxyphenyl)-1,2,4-oxadiazol-5-yl)methyl)-1H-1,2,3-triazol-4-yl)methyl)acridin-9(10H)-one (10o)] | > 100 µM | > 100 µM
O=c1c2ccccc2n(Cc2cn(Cc3nc(-c4ccc(Cl)cc4)no3)nn2)c2ccc(Br)cc12 [2-Bromo-10-((1-((3-(4-chlorophenyl)-1,2,4-oxadiazol-5-yl)methyl)-1H-1,2,3-triazol-4-yl)methyl)acridin-9(10H)-one (10p)] | > 100 µM | > 100 µM
COc1ccc2c(c1)c(=O)c1ccccc1n2Cc1cn(Cc2nc(-c3ccc(C)cc3)no2)nn1 [2-Methoxy-10-((1-((3-(p-tolyl)-1,2,4-oxadiazol-5-yl)methyl)-1H-1,2,3-triazol-4-yl)methyl)acridin-9(10H)-one (10i)] | > 100 µM | > 100 µM
O=c1c2ccccc2n(Cc2cn(Cc3nc(-c4ccc(Cl)cc4)no3)nn2)c2ccccc12 [10-((1-((3-(4-Chlorophenyl)-1,2,4-oxadiazol-5-yl)methyl)-1H-1,2,3-triazol-4-yl)methyl)acridin-9(10H)-one (10c)] | 88.9 µM | 24.7 µM
COc1ccc(-c2noc(Cn3cc(Cn4c5ccccc5c(=O)c5cc(Cl)ccc54)nn3)n2)cc1 [2-Chloro-10-((1-((3-(4-methoxyphenyl)-1,2,4-oxadiazol-5-yl)methyl)-1H-1,2,3-triazol-4-yl)methyl)acridin-9(10H)-one (10m)] | > 100 µM | > 100 µM
